# Test results: article PMC10778824, “New Chalcone Derivatives Containing 2,4-Dichlorobenzenesulfonamide Moiety with Anticancer and Antioxidant Properties” (International Journal of Molecular Sciences, 2023)
# Where “and” joins values, the source holds several entries; their conditions need not be identical. Equal values may be shown once.
# Experiments:
# [1] = tested on: acute promyelocytic leukemia HL-60; experiment: MTT assay, HL-60 cells; type: cell-based, human
# Protocol: (§1) The human gastric adenocarcinoma AGS, cervical cancer HeLa, and acute promyelocytic leukemia HL-60 cells were obtained from the American Type Culture Collection (ATCC, Manassas, VA, USA). Human neonatal fibroblasts were obtained from LGC Standards (Luckenwalde, Germany). The HeLa and AGS lines were cultured in Dulbecco’s modified Eagle’s medium (DMEM) and DMEM/F12 medium, respectively. The HL-60 line was maintained in RPMI-1640 medium. Fibroblasts were cultured in Fibroblast Growth Medium with Supplement Mix. All the media were supplemented with 100 units/mL of penicillin, 100 µg/mL of streptomycin, and 10% (v/v) fetal bovine serum (FBS) (Merck Millipore, Burlington, MA, USA). The cells were incubated at 37 °C and 5% CO2.
# (§2) To estimate the cytotoxic effect of the five compounds (4–8), MTT (3-(4,5-dimethylthiazol-2-yl)-2,5-diphenyltetrazolium bromide) assay was used. Oxaliplatin was used as a positive control in this test. All the cell lines were seeded in 96-well plates at a density of 5 × 10^3 cells/well and treated for 24 h with the compounds at concentrations of 0.5–40 µg/mL. Oxaliplatin was tested in the range of 20–400 µg/mL (50–1000 µM). After treatment, the cells were incubated with MTT (0.5 mg/mL; Merck Millipore, Burlington, MA, USA) for 3 h. Then, DMSO was used to dissolve formazan crystals, and the absorbance of the formazan solution was measured with a plate reader (Epoch, BioTek Instruments, Santa Clara, CA, USA). All the results (±standard deviation (SD)) were obtained from six repetitions in at least two independent experiments. The data are expressed as IC50 values (µg/mL).
# [2] = tested on: gastric adenocarcinoma AGS; experiment: MTT assay, AGS cells; type: cell-based, human
# Protocol: as §1, §2
# [3] = Annexin V and dead cell assay (flow cytometry); type: cell-based, human; details: human, AGS cells, 10 µg/mL, read-out: live cells (viability)
# Protocol: (§3) To estimate the viability and induction of apoptosis/necrosis in the population of AGS cells treated with compound 5, the Muse Annexin V and a Dead Cell Assay Kit (Merck Millipore, Burlington, MA, USA) were used. The cells were seeded in 12-well plates (1 × 10^5 cells/well) and incubated with the compound at concentrations of 1, 5, and 10 µg/mL. […] After 24 h, the cells were stained with the kit reagents, namely, annexin V and 7-AAD (7-aminoactinomycin), and analyzed by flow cytometry (Muse Cell Analyzer, Merck Millipore, Burlington, MA, USA). The experiments were performed in three independent repeats.
# AGS cells [4] = experiment: Annexin V and dead cell assay (flow cytometry); type: cell-based, human; details: 24 h
# Protocol: as §3
# neutrophil elastase = target: T1, neutrophil elastase (Sus scrofa, UniProt P00772); experiment: Elastase assay (SANA substrate); type: biochemical, porcine; details: Tris-HCl pH 8.0, SANA substrate; read-out: neutrophil elastase inhibition IC50 (converted)
# T1 construct: purchased Sigma Chemical Co. (St. Louis, MO, USA)
# T1 sequence (P00772 27-266): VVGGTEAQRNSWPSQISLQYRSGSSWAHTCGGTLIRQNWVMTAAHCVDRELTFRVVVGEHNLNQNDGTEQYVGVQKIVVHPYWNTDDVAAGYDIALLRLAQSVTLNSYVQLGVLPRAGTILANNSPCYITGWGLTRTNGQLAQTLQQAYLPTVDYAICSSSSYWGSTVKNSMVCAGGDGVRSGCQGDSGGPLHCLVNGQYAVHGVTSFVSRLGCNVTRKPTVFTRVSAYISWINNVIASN
# Protocol: The elastase analysis was performed according to the spectrophotometric method with oleanolic acid as a reference. The reaction mixture (Tris-HCl buffer (pH 8.0), 1.0 μg/mL porcine pancreatic elastase, and different concentrations of chalcone derivatives was preincubated at room temperature for 15 min. Afterwards, the addition of the substrate—SANA—started the reaction. Product formation changes were analyzed at λ = 410 nm for 20 min every 20 s (Epoch, BioTek Instruments, Santa Clara, CA, USA). The control was composed of Tris-HCl buffer (pH 8.0), an appropriate concentration of the chalcone derivative, and SANA.
# [5] = tested on: human neonatal fibroblasts; experiment: MTT assay, noncancerous fibroblasts; type: cell-based; details: Homo sapiens, Fibroblast, 24 h treatment
# Protocol: as §1, §2
# [6] = ABTS radical scavenging assay; details: concentration of 800 µg/mL
# Protocol: The ABTS radical scavenging assay of chalcone derivatives was performed with ascorbic acid as a standard. Different concentrations of samples, dissolved in DMSO, were mixed with 170 μL of ABTS solution (2 mM ABTS diammonium salt and 3.5 mM potassium persulfate), and water was added to a final volume of 300 μL. ABTS solution with DMSO was used as a control. […] ABTS inhibition was calculated according to the following Formula (3):ABTS Inhibition (%) = [(Acontrol − Asample)/Acontrol] × 100%(3)
# AGS cells [7] = experiment: Cell cycle analysis (propidium iodide); type: cell-based, human; details: 48 h
# Protocol: The AGS cells were seeded in a 6-well plate (5 × 10^5 cells/well) and incubated with compound 5 at concentrations of 1, 5, and 10 µg/mL for 48 h; oxaliplatin at the concentration of 40 µg/mL; and DMSO (0.2%, v/v). After treatment, the cells were stained with propidium iodide from the Muse Cell Cycle Assay Kit (Merck Millipore, Burlington, MA, USA), and the amount of cells in each phase of the cell cycle was determined using the Muse Cell Analyzer (Merck Millipore, Burlington, MA, USA). The experiment was independently repeated three times.
# AGS cells [8] = experiment: Microscopic observation of AGS cells; type: cell-based, human; details: microscopy, 200×; compound 5 at 1, 5, 10 µg/mL; oxaliplatin 20 and 40 µg/mL
# Protocol: These changes were clearly visible when higher concentrations of the compound were used in the study.
# Figure 2 The effect of chalcone derivative 5 on AGS cells. The cells were treated with DMSO (0.2%, v/v) (A) and the compound at concentrations of 1 (B), 5 (C), and 10 (D) µg/mL and oxaliplatin at 20 (E) and 40 (F) µg/mL. The images were taken at 200× magnification.
# [9] = SI = IC50 noncancer cells/IC50 cancer cells, in relation to human neonatal fibroblasts
smiles,measurement,setting,value
"Cc1cc(S(=O)(=O)Nc2ccc(C(=O)/C=C/c3ccc(Br)cc3)cc2)c(Cl)cc1Cl [Compound 5, (E)-N-{4-[3-(4-Bromophenyl)acryloyl]phenyl}-2,4-Dichloro-5-Methylbenzenesulfonamide]",IC50,"[1]; Homo sapiens, HL-60, 24 h, MTT, 24 h treatment",< 1.57 µg/mL
same,IC50 HL-60,"[1]; MTT, 24 h treatment",0.93 ± 0.09 µg/mL
same,selectivity index HL-60,[1]; [9],27.52
same,IC50,"[2]; Homo sapiens, AGS, 24 h, MTT, 24 h treatment",< 1 µg/mL
same,selectivity index AGS,[2]; [9],28.75
same,"viability at 24 h, 10 µg/mL",[3],29%
same,dead cells,AGS cells [4]; 5 µg/mL,18.28% ± 1.80%
same,late apoptotic cells,AGS cells [4]; 5 µg/mL,33.92% ± 3.05%
same,dead cells,AGS cells [4]; 10 µg/mL,22.16% ± 2.04%
same,late apoptotic cells,AGS cells [4]; 10 µg/mL,49.90% ± 2.07%
same,live cells (viability),AGS cells [4]; 10 µg/mL,26.26% ± 4.03%
same,IC50,neutrophil elastase,121 µM
same,IC50,[5],25.6 ± 1.04 µg/mL
same,% of ABTS radical inhibition,[6],16.01 ± 0.69%
same,cells in G0/G1 phase,AGS cells [7]; 1 µg/mL,41.4%
same,cells in G2/M phase,AGS cells [7]; 1 µg/mL,43.0%
same,cells in S phase,AGS cells [7]; 1 µg/mL,14.6%
same,cells in G1 (G0/G1) phase,AGS cells [7]; 10 µg/mL,34.9% and 34.47% ± 2.87%
same,cells in G2/M phase,AGS cells [7]; 10 µg/mL,23.1% and 21.50% ± 1.50%
same,cells in S phase,AGS cells [7]; 10 µg/mL,15.5% and 13.78% ± 1.70%
same,cells in subG0 phase,AGS cells [7]; 10 µg/mL,27.1% ± 0.87%
same,morphological changes of AGS cells,AGS cells [8],"cell shrinkage, membrane blebbing, and cell detachment"
